# Measured values published in patent EP2253620B1, “SUBSTITUTED 3-CYANOQUINOLINES AS PROTEIN TYROSINE KINASES INHIBITORS” (Wyeth Holdings LLC, priority 1998, dated 2000).
# What was measured:
# Type in all cases: biochemical
# [1] = molecular target: T1, epidermal growth factor receptor kinase (Homo sapiens, UniProt P00533); test: Inhibition of Epidermal Growth Factor Receptor Kinase (EGF-R) using recombinant enzyme; conditions: averages of the individual determinations
# T1 construct: containing the EGFR cDNA encoding amino acids 645 - 1186 preceded by Met-Ala-(His)6; made in house; host or cells: Sf9 insect cells, recombinant baculovirus vHcEGFR52
# T1 sequence (P00533 669-1210): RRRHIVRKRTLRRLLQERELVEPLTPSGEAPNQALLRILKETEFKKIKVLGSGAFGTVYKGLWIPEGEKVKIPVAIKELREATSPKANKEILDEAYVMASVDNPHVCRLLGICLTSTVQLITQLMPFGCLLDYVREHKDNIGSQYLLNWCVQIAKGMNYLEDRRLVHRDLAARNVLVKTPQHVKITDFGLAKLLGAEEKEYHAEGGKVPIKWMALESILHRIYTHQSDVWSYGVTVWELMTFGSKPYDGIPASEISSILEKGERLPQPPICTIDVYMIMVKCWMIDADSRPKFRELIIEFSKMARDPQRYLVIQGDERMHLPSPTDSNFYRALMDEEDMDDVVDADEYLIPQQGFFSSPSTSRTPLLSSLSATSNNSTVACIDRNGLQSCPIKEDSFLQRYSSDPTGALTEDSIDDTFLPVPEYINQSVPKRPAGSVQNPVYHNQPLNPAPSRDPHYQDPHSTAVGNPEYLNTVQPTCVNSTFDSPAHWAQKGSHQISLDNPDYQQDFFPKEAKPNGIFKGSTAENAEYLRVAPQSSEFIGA
# Experimental: Representative test compounds were evaluated for their ability to inhibit the phosphorylation of the tyrosine residue of a peptide substrate catalyzed by the enzyme epidermal growth factor receptor kinase. […] The enzyme used in this assay is the His-tagged cytoplasmic domain of EGFR. A recombinant baculovirus (vHcEGFR52) was constructed containing the EGFR cDNA encoding amino acids 645 - 1186 preceded by Met-Ala-(His)6. Sf9 cells in 100 mm plates were infected at an moi of 10 pfu/cell and cells were harvested 48 h post infection. A cytoplasmic extract was prepared using 1% Triton X-100 and applied to Ni-NTA column. After washing the column with 20 mM imidazole, HcEGFR was eluted with 250 mM imidazole (in 50 mM Na2HPO4, pH 8.0, 300 mM NaCl). Fractions collected were dialyzed against 10 mM HEPES, pH 7.0, 50 mM NaCl, 10% glycerol, 1ug/mL antipain and leupeptin and 0.1 mM Pefabloc SC. The protein was frozen in dry ice/methanol and stored -70°C.
# Test compounds were made into 10 mg/mL stock solutions in 100% dimethylsulfoxide (DMSO). Prior to experiment, stock solutions were diluted to 500 uM with 100% DMSO and then serially diluted to the desired concentration with HEPES buffer (30 mM HEPES pH 7.4).
# For the enzyme reaction, 10 µL of each inhibitor (at various concentrations) were added to each well of a 96-well plate. To this was added 3 µL of enzyme (1:10 dilution in 10mM HEPES, pH 7.4 for final conc. of 1:120). This was allowed to sit for 10 min on ice and was followed by the addition of 5 µl peptide (80 µM final conc.), 10 µl of 4X Buffer (Table A), 0.25 µL ^33P-ATP and 12 µL H2O. The reaction was allowed to run for 90 min at room temperature and was followed by spotting the entire volume on to precut P81 filter papers. The filter discs were washed 2X with 0.5% phosphoric acid and radioactivity was measured using a liquid scintillation counter.
# The % inhibition of the test compound was determined for at least three different concentrations and the IC50 value was evaluated from the dose response curve. […] CPM(control) is in units of counts per minute and was a number expressing the amount of radiolabled ATP (g-^33P) incorporated into the RR-SRC peptide substrate by the enzyme after 90 minutes at room temperature in the absence of test compound as measured by liquid scintillation counting. The CPM values were corrected for the background counts produced by ATP in the absence of the enzymatic reaction. The IC50 values in TABLE 1 are averages of the individual determinations.
# [2] = molecular target: T2, Kinase insert Domain containing Receptor (KDR: the catalytic domain of the VEGF receptor) (Homo sapiens, UniProt P35968); test: Inhibition of Kinase insert Domain containing Receptor (KDR) tyrosine kinase activity
# T2 construct: KDR: the catalytic domain of the VEGF receptor
# T2 sequence (P35968 834-1162 limits assumed): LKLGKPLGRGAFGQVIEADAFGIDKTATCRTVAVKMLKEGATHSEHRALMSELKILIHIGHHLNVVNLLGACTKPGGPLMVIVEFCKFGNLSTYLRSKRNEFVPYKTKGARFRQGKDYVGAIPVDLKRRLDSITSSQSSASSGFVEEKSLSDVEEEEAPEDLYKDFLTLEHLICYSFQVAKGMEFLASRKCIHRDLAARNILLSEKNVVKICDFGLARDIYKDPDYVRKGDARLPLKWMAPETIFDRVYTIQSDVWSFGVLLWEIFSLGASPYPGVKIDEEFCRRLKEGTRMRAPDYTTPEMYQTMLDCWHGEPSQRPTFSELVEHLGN
# From the text: Inhibition of Kinase insert Domain containing Receptor (KDR: the catalytic domain of the VEGF receptor)
# In this standard pharmacological test procedure, KDR protein is mixed, in the presence or absence of a inhibitor compound, with a substrate peptide to be phosphorylated (a copolymer of glutamic acid and tyrosine, E:Y :: 4:1) and other cofactors such as Mg^++ and sodium vanadate (a protein tyrosine phosphatase inhibitor) in an appropriate buffer to maintain pH (7.2). ATP and a radioactive tracer (either P^32- or P^33- labeled ATP) is then add to initiate phosphorylation. After incubation, the radioactive phosphate associated with the acid-insoluble fraction of the assay mixture is then quantified as reflection of substrate phosphorylation. […] Multiple entries for a given compound indication it was tested multiple times.
# [3] = molecular target: Epithelial Cell Kinase (ECK) (Homo sapiens, UniProt P29317); test: Inhibition of Epithelial Cell Kinase (ECK) tyrosine kinase activity
# Epithelial Cell Kinase (ECK), sequence (P29317 24-976, species assumed): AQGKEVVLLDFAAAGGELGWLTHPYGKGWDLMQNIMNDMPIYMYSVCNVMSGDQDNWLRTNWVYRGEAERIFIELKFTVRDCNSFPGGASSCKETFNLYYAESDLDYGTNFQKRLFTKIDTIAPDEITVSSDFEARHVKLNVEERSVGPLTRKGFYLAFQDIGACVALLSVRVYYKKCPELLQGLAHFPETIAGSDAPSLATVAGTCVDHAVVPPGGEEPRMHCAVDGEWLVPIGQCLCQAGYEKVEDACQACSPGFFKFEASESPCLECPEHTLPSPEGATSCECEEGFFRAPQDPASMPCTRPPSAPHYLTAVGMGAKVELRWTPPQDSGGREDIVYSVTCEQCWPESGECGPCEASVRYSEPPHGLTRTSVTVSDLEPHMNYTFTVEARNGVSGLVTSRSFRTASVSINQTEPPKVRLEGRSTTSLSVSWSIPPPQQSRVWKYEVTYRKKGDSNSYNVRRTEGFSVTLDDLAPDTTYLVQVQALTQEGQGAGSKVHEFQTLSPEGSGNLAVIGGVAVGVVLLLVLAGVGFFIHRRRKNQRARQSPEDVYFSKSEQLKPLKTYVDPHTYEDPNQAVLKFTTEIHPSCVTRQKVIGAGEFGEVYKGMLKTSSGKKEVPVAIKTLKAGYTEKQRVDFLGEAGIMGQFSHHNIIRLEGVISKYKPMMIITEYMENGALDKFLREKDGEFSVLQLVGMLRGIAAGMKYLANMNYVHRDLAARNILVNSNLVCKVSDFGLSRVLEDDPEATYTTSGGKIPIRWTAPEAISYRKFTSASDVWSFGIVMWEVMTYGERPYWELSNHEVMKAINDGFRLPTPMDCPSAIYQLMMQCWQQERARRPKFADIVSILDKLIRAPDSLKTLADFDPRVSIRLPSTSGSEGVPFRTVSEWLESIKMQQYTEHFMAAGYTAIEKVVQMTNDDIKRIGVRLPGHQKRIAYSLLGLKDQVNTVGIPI
# Experimental: In this standard pharmacological test procedure, a biotinylated peptide substrate is first immobilized on neutravidin-coated microtiter plates. The test drug, the Epithelial Cell Kinase (ECK), Mg^++, sodium vanadate (a protein tyrosine phosphatase inhibitor), and an appropriate buffer to maintain pH (7.2) are then added to the immobilized substrate-containing microtiter wells. ATP is then added to initiate phosphorylation. After incubation, the assay plates are washed with a suitable buffer leaving behind phosphorylated peptide which is exposed to horse radish peroxidase (HRP)-conjugated anti-phosphotyrosine monoclonal antibody. The antibody-treated plates are washed again and the HRP activity in individual wells is quantified as a reflection of degree of substrate phosphorylation. […] Multiple entries for a given compound indication it was tested multiple times.
# Mek and Erk = Mek and Erk (Homo sapiens, UniProt P28482+Q02750); test: Mitogen Activated Protein Kinase (MAPK) coupled assay (Mek-Erk); conditions: coupled MEK 1 / ERK2; separate entries = separate tests; read-out: Mek and Erk
# Mek and Erk, sequence (Q02750 whole entry): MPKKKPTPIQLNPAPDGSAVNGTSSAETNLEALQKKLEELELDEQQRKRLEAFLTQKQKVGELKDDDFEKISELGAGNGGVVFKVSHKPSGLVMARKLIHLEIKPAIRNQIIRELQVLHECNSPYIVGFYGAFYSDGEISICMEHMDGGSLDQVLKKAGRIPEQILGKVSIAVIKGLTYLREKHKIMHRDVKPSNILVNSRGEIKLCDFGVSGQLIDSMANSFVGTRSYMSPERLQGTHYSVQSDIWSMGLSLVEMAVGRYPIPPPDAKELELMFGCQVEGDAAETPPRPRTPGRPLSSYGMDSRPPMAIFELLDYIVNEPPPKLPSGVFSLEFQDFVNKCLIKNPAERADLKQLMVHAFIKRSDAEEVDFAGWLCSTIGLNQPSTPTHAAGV
# Mek and Erk, sequence (P28482 2-360): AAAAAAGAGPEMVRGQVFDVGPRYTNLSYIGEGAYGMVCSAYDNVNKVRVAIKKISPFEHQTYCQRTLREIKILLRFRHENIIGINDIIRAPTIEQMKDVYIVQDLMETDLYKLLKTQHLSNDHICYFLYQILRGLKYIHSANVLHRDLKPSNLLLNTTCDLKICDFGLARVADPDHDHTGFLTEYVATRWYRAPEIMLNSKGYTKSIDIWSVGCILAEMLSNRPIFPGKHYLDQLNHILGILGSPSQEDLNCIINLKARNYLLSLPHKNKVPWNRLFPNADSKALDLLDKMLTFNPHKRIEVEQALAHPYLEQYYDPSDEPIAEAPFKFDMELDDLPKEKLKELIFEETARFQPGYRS
# Experimental: Mitogen Activated Protein Kinase (MAPK) Assay
# To evaluate inhibitors of the MAP (mitogen activated protein) kinase a two component coupled standard pharmacological test procedure, which measures phosphorylation of a serine/threonine residue in an appropriate sequence in the substrate in the presence and absence of a putative inhibitor, was used. Recombinant human MEK 1 (MAPKK) was first used to activate recombinant human ERK2 (MAPK) and the activated MAPK (ERK) was incubated with substrate (MBP peptide or MYC peptide) in the presence of ATP, Mg^+2 and radiolabeled ^33P ATP. The phosphorylated peptide was captured on a P 81 phosphocellulose filter (paper filter or embedded in microtiter plate) washed and counted by scintillation methods.
# The peptide substrates used in the assay are MBP, peptide substrate ([…]), or synthetic Myc substrate, ([…]•5 TFA. The recombinant enzymes used were prepared as GST fusion proteins of human ERK 2 and human MEK 1. Inhibitor samples were prepared as 10X stocks in 10% DMSO and an appropriate aliquot was used to deliver either 10 ug/ml for a single point screening dose or 100, 10, 1, and 0.1 uM final concentration for a dose response curve. Final DMSO concentrations were less than or equal to 1%.
# The reaction was run as follows in 50 mM Tris kinase buffer, pH 7.4 in a reaction volume of 50 ul. The appropriate volume of kinase buffer and inhibitor sample was added to the tube. Appropriate dilution of enzyme was delivered to give 2-5 ug recombinant MAPK (Erk ) per tube. The inhibitor was incubated with MAPK (Erk) for 30 min at 0 deg. C. Recombinant Mek (MAPKK) ( 0.5-2.5 ug) or fully activated Mek (0.05-0.1 units) was added to activate the Erk and incubated for 30 min at 30° C. Then substrate and gamma ^33P ATP was were added to give a final concentration of 0.5- 1 mM MBPP or 250-500 uM Myc; 0.2-0.5 uCi gamma P 33 ATP/tube; 50 µM ATP final concentration. Samples were incubated at 30°C for 30 minutes and the reaction was stopped by adding 25 µl of ice cold 10 %TCA .After samples were chilled on ice for 30 min, 20 µl of sample was transferred onto P 81 phosphocellulose filter paper or appropriate MTP with embedded P 81 filter. Filter papers or MTP were washed 2 times with a large volume of 1% acetic acid, then 2 times with water. The filters or MTP were briefly air dried before addition of scintillant and samples were counted in the appropriate scintillation counter set up for reading ^33P isotope. Samples included a positive control (activated enzyme plus substrate); a no enzyme control; a no substrate control; samples with different concentrations of putative inhibitor; and samples with reference inhibitors (other active compounds or non-specific inhibitors such as staurosporine or K252 B).
# The raw data was captured as cpm. Sample replicates were averaged and corrected for background count. Mean cpm data was tabulated by group and % inhibition by a test compound was calculated as (corrected cpm control- corrected. cpm sample/control) X 100 = % inhibition. […] The results obtained for representative compounds of this invention are listed in TABLE 2 where there may be separate entries for the same compound; this is an indication that the compound was evaluated more than one time.
structure (smiles),measurement,setting,value
"N#Cc1cnc2ccc(NC(=O)C#CCN3CCC4(CC3)OCCO4)cc2c1Nc1cccc(Br)c1 [Example 82, 4-(1,4-Dioxa-8-azaspiro[4,5]dec-8-yl)but-2-ynoic Acid [4-(3-Bromophenylamino)-3-cyanoquinolin-6-yl] Amide]",IC50,[1],50 nM
same,IC50,[2],> 1830 nM
same,IC50,[3],> 1830 nM
same,IC50,Mek and Erk,30 µM
